In patent publication US10126289B2, “Multimodality CMOS sensor array for physiological characterization of cells” (Georgia Tech Research Corporation, priority 2015, dated 2018):

Key:
human cardiomyocytes [1] = experiment: Joint-modality cardiac drug screening: real-time cellular impedance sensing (cell attachment); assay type: cell-based; conditions: 10 nM isoproterenol; FIG. 20
Protocol: (§1) Human Cardiomyocytes. Human ESCs are first cultured in a monolayer until confluence. Next, cardiomyocytes are directly differentiated through the use of small molecules Gsk3 inhibitor and Wnt inhibitor for 14 days. Finally, the CMOS chip is sterilized using 70% ethanol and coated with a Matrigel matrix as a protein mixture layer to enhance cell culture and attachment. Cardiomyocytes are then seeded onto the CMOS chips as either single cells or aggregated cardiospheres.
(§2) On-chip cultured human cardiomyocytes was used in this experiment. Their autonomous beating is captured by the extracellular voltage recording, and the beating rate is used to characterize the potency of the cardiac drugs. Isoproterenol, a small molecule cardiac drug, is used in this example. Isoproterenol has its known drug effect of activating the β1-receptors on the cardiac cells and increasing the cardiac cells beating rate. It has been widely used to treat bradycardia and heart block.
(§3) First, the on-chip cardiomyocytes beating spikes were recorded as the extracellular voltage recording in a normal culture medium. The baseline cellular impedance mapping was also measured. Next, 10 nM isoproterenol was directed to the cell culture medium using pipettes, and the cardiomyocytes are real-time monitored with joint-modality measurements. […]

human cardiomyocytes [2] = experiment: Joint-modality cardiac drug screening: extracellular voltage recording of cardiomyocyte beating on CMOS sensor chip; assay type: cell-based; conditions: 10 nM isoproterenol in culture medium
Protocol: as §1, §2, §3

[3] = test system: human ovarian cancer cells (HeyA8-F8); conditions: 200 μg/mL luciferin at T=0; VPD 0.4V
Protocol: Ovarian Cancer Cells. For culturing the ovarian cancer cells (HeyA8-F8), the CMOS chip surface is sterilized by 70% ethanol and then washed three times with sterile Phosphate Buffered Saline (PBS). To increase cell adhesion to the chip surface, 0.1% gelatin is added onto the chip for 30 minutes before being aspirated. […] Ovarian cancer cells are then seeded directly onto the CMOS chip and allowed to attach before adding 1 mL of cell culture media.
The human ovarian cancer cells (HeyA8-F8) can constitutively express firefly luciferase. […] The bioluminescence information can be used to verify the viability of the HeyA8-F8 cancer cells and can be further extended to other bioluminescence cell-based assays.
Since the intensity of the bioluminescence light is generally weak, the background noise, such as the photodiode dark current, should be suppressed and calibrated. […] Moreover, dark current in each sensing pixel is recorded before the measurement and then subtracted after the bioluminescence recoding.
The CMOS sensor chip starts data recording after a 130-second setup time. During the optical detection, the photodiode reset pulse width is 1 second and the repetition rate is 0.05 Hz. Thus, each photo current integration window is 19 seconds, and the optical detection data is refreshed every 20 seconds. […]

[4] = test system: human ovarian cancer cells (HeyA8-F8); conditions: general statement; depends on number of cells and luciferin concentration; cited from earlier work

| SMILES | real-time cardiomyocytes impedance change (cell attachment) (human cardiomyocytes [1]) | increase of recorded number of cell beating spikes in the 90-second counting window (human cardiomyocytes [2]) [%] | time at which bioluminescence emission fully decays [3] [s] | time of bioluminescence emission peak after administration [3] | time of luminescence emission peak after administration (in general) [4] |
| --- | --- | --- | --- | --- | --- |
| CC(C)NCC(O)c1ccc(O)c(O)c1 (centres unmarked) [isoproterenol, Isoproterenol] | small decrease | 150 |  |  |  |
| O=C(O)[C@H]1CSC(c2nc3ccc(O)cc3s2)=N1 [luciferin] |  |  | 800 | around 300 seconds | about 5 minutes |
